Patent US5196568A, “Compounds useful in enzymatic resolution systems and their preparation” (priority 1988, dated 1993)
Structures can show the parent of a compound that is named as a salt. Each block holds one compound with its values, some of them ahead of it.

Columns and labels:
[1] = molecular target: T1, Protease VIII "Subtilopeptidase A" (subtilisin Carlsberg) (Enzyme B) (Bacillus licheniformis, UniProt P00780); assay: Homogeneous aqueous enzymatic resolution with Enzyme B; assay type: biochemical
T1 sequence (P00780 106-379): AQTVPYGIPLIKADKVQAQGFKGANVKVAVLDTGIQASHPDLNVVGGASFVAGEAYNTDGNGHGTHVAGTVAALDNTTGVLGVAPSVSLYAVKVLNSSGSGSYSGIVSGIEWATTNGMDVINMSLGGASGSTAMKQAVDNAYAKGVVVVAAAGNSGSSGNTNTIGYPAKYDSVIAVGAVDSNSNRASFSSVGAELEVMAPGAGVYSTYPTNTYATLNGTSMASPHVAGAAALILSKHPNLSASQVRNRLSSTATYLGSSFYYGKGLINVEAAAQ

[2] = test system: Protease XXIII from Aspergillus oryzae (Enzyme A); assay: Homogeneous aqueous enzymatic resolution (ester hydrolysis) with Enzyme A; assay type: biochemical
Method: No further purification was performed.

[3] = cited from earlier work
[4] = Solubility of esters, absorbance of saturated solutions at 262 nm; assay type: physicochemical; details: saturated solution, pH 7 (50 mM phosphate buffer), room temperature
[5] = test system: Protease XVI from Bacillus subtilis (Enzyme C); assay: Homogeneous aqueous enzymatic resolution with Enzyme C; assay type: biochemical; details: 100 mg enzyme C, 10 mmol ester in 100 ml 0.2M phosphate buffer pH 7.0, 20 hours, 20-22 C
[6] = test system: protease Prozyme 6 (Enzyme F); assay: Asymmetric hydrolysis in an extractive membrane reactor with Enzyme F; assay type: biochemical, Aspergillus oryzae
Source text: Hexane was recirculated through the lumen or bores of the fibers in the module. The aqueous solution in the shell contained the enzyme and ester. While the cellulose membrane is water-wet, the membrane rejects the macromolecular enzyme (molecular weight 18,000). Therefore, the enzyme resides solely in the aqueous ester solution. As the ibuprofen acid was formed, it was extracted into the hexane phase, thereby reducing the effect of product (ibuprofen acid) inhibition on the activity of the enzyme.
The aqueous phase used to extract the ibuprofen acid from hexane in this module contained 0.1 M sodium carbonate buffer at pH 9.5. The pH was maintained at this value by the addition of 8.22M sodium hydroxide as required.
In this Example, the aqueous stream in the extractive membrane reactor module consisted of a solution of the sulfomethyl ester of ibuprofen (1), which solution was prepared by adding 32.51 gm of the sodium salt of the ester (at 75% chemical purity) to 1000 ml of 0.1M sodium phosphate buffer (pH 7.0). The reaction was started by adding 2 gm of the protease (F) from the fungus Aspergillus oryzae (from Amano Enzyme Corporation, Prozyme 6, 60,000 units per […] of solid). Reaction progress was followed by automatic titrimetry using a pH-stat.
The pH 9.5 solution was then acidified to pH 2 and extracted with 2 volumes of t-butyl methyl ether. The ether phase was first washed with two volumes of distilled water, then dried over MgSO4. and subsequently evaporated to dryness. The resolved ibuprofen product was recovered as about 6 gm of a white powder.
The optical rotation of the recovered product was measured by polarimetry; the experimentally determined value for [α]D was -56.7° (measured at c=0.815 in ethanol), thereby indicating the R isomer of ibuprofen. The sample was also analyzed by chiral HPLC using a Bakerbond DNBPG (covalent) column (4.6×250 mm), with 96.9% hexane:3.0% 2-propanol:0.1% acetonitrile as the mobile phase at 2 ml/min after derivatization with napthalene amine. The detector was a UV spectrophotometer set at 223 nm. The retention times for the S and R ibuprofen acids were 18.5 and 20.0 min, respectively. The optical purity or enantiomeric excess of this R ibuprofen sample as determined by this chiral HPLC procedure was 99.3% (i.e., enantiomeric excess of R ibuprofen).
The aqueous phase at pH 7.0 (as recovered from the extractive membrane reactor) was mixed with 280 gm of sodium chloride to salt out the remaining unconverted ester. The ester was filtered, washed with saturated sodium chloride, and air dried. 12.8 gm of ester were recovered in this manner. […] The optical rotation (as measured by polarimetry) was [α]D =+57.4° (c=1.29 in ethanol), indicating the S isomer of ibuprofen. […]

[7] = test system: protease Prozyme 6 (Enzyme F); assay: Asymmetric hydrolysis in an extractive dispersion reactor with Enzyme F; assay type: biochemical, Aspergillus oryzae; details: 100 mg Prozyme 6, 3.38 gm ester in 100 ml buffer pH 7.0 and 100 ml hexane, 3.5 hours, room temperature
Method: In this Example, the hexane was dispersed in the reaction vessel to extract the inhibitory ibuprofen acid as it is formed. The reaction was started by adding 100 mg of the protease from the fungus Aspergillus oryzae (from Amano Enzyme Corporation, Prozyme 6, 60,000 units per mg of solid).
After 3.5 hours at room temperature with vigorous stirring, the solution was acidified to pH 2 and extracted with 2 volumes of hexane. The aqueous phase was saved for subsequent workup. The hexane phase was dried over MgSO4 and evaporated to dryness. The resolved ibuprofen product so recovered consisted of 490 mg of white powder, indicating 24% conversion. The optical rotation was -0.568° (c=1.015 in ethanol), indicating the R isomer of ibuprofen.

[8] = test system: protease Prozyme 6 (Enzyme F); assay: Homogeneous aqueous enzymatic resolution with Enzyme F; assay type: biochemical, Aspergillus oryzae; details: for Conversion in Homogeneous Aqueous Reaction System: 0.5M ester, pH 7.0, 30 C
Method: The enzymatic reaction mixtures were capped and briefly shaken until all the substrate had dissolved, and the enzyme had completely dissolved or dispersed. […] Evaporation of the ether left a white solid. The result is summarized below in Table 11 Rotations were measured at c=1 in CHCl3.
The enzymatic reaction mixtures were capped and briefly shaken until all the substrate had dissolved, and the enzyme had completely dissolved or dispersed. […] Evaporation of the ether left a white solid. Rotations were measured at c=1 in CHCl3.
The reaction was started by adding 100 mg of the protease (F) from the fungus Aspergillus oryzae (from Amano Enzyme Corporation, Prozyme 6, 60,000 units per mg of solid).
After 20 hours at room temperature, the solution was acidified to pH 2 and extracted with 3 volumes of diethyl ether. The aqueous phase was saved for subsequent workup. The ether phase was washed with two volumes of distilled water and then one volume of saturated sodium chloride, and then it was dried over MgSO4 and subsequently evaporated to dryness. The resolved ibuprofen product recovered was 930 mg of white powder, indicating 45% conversion of racemic ester to acid. The optical rotation was -0.580° (measured at c=1 in ethanol), indicating the R isomer of ibuprofen.
35 mg of protease Enzyme F, as the commercial preparation Prozyme 6, were added to the aqueous solution. The reaction flask was capped, and briefly shaken until all the enzyme had dissolved or dispersed. […] The resulting mixture was diluted with one volume of water and was extracted with diethyl ether (2 times 200 ml). The ether layers were combined and backwashed with water (2 times 200 ml), saturated NaCl solution (200 ml), and then dried over MgSO4.
In this control run, a 0.5M ester solution of (1) was prepared in 325 ml of 0.1M sodium phosphate buffer (pH 7.0). The reaction was started by adding 3 gm of the above enzyme (F). The pH was controlled at 7.0 with 8.22M sodium hydroxide. After 6.49 hours at 30° C., 6.63 ml of hydroxide were added, indicating 37.7% conversion. The reaction was allowed to continue overnight and, after 23.1 hours, a total of 7.2 ml of sodium hydroxide were added, indicating 40.9% conversion.

[9] = test system: lipase from Candida cylindracea (Meito Sangyo, Lipase OF); assay: Activity of Lipase OF against the ester; assay type: biochemical
[10] = molecular target: T2, Protease XXVII "Nagarse" (Enzyme D) (Bacillus amyloliquefaciens, UniProt P00782); assay: Homogeneous aqueous enzymatic resolution with Enzyme D; assay type: biochemical; details: acid product (R); 150 mg enzyme D, pH 7.8
T2 construct: purchased Protease XXVII
T2 sequence (P00782 108-382): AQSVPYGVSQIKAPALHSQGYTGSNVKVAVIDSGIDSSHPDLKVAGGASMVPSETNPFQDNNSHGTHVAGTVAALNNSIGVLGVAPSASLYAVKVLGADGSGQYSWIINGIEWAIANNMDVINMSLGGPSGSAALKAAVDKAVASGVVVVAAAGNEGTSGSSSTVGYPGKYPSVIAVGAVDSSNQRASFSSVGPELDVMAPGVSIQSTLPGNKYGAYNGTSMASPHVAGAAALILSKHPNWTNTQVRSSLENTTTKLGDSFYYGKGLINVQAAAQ

Pig Liver Esterase (E) = assay: Homogeneous aqueous enzymatic resolution with Enzyme E; assay type: biochemical; details: 30 mg Pig Liver Esterase

Structure (SMILES): CC(C)Cc1ccc(C(C)C(=O)OCCS(=O)(=O)O)cc1 (centres unmarked) [Compound 2, Sodium Salt of 2-Sulfoethyl Ester of 2-(4-Isobutylphenyl)propanoic Acid]
% e.e. ([1]; acid product (R), 150 mg enzyme B, 125 ml buffer pH 7.0, 18 hours): 90.0%
% e.e. ([2]; acid product (R), 150 mg enzyme A, 125 ml buffer pH 7.0, 18 hours): > 99%

Structure (SMILES): COc1ccc2cc([C@H](C)C(=O)O)ccc2c1 (stereo in doubt) [naproxen, (+)-S-2-(6-methoxy-2-naphthyl)propanoic acid]
times more therapeutically potent than its R(-) counterpart ([3]; S(+) enantiomer vs R(-)): 28 times

Structure (SMILES): CC(C)Cc1ccc(C(C)C(=O)OCS(=O)(=O)O)cc1 (centres unmarked) [Compound 1, Sodium Salt of 4-Sulfomethyl Ester of 2-(4-Isobutylphenyl)propanoic Acid]
conversion of the racemic ester to the acid ([6]; enzyme in aqueous phase and membrane pores, 3 gm Prozyme 6, 0.5M ester, pH 7.0, 6.75 hours at 30 C): 48.3%
conversion of the racemic ester to ibuprofen acid ([6]; enzyme in aqueous phase only (cellulose dialysis fibers), 2 gm Prozyme 6, 32.51 gm ester in 1000 ml pH 7.0, hexane, 6.3 hours, room temperature): 50%
enantiomeric excess of R ibuprofen by chiral HPLC (acid product) ([6]; enzyme in aqueous phase only, 6.3 hours): 99.3%
enantiomeric excess of S ibuprofen by chiral HPLC (from unconverted ester) ([6]; enzyme in aqueous phase only, 6.3 hours, ester hydrolysed at pH 12): 98.9%
conversion [7]: 24%
% e.e. ([2]; acid product (R), 100 mg enzyme A, pH 7.0, 20 hours, 20-22 C): > 99%
conversion of racemic ester to acid ([8]; 100 mg Prozyme 6, 3.22 gm ester in 100 ml 0.2M sodium phosphate pH 7.0, 20 hours, room temperature): 45%
conversion ([8]; 3 gm enzyme F, 0.5M ester in 325 ml 0.1M sodium phosphate pH 7.0, 30 C, after 6.49 hours): 37.7%
Conversion in Homogeneous Aqueous Reaction System ([8]; 3 gm enzyme F, 23.1 hours): 40.9%
Conversion in Homogeneous Aqueous Reaction System ([8]; 3 gm enzyme F, Time 6.75 hrs): 37.7%
activity of the lipase against the ester [9]: inactive

Structure (SMILES): CC(C)NCC(O)COc1cccc2ccccc12 [L-form of propranolol, propranolol]
times more potent than the D-enantiomer ([3]; L-form vs D-enantiomer): 100 times

Structure (SMILES): CC(C)Cc1ccc(C(C)C(=O)OCCCS(=O)(=O)O)cc1 (centres unmarked) [Compound 3, Potassium Salt of 3-Sulfopropyl Ester of 2-(4-Isobutylphenyl)propanoic Acid]
% e.e. [10]: 91.0%
% CONVERSION ([2]; 100 mg enzyme A, 10 mmol ester in 100 ml 0.2M phosphate buffer pH 7.0, 20 hours, 20-22 C): 50.0%
conversion of the racemic ester to acid ([2]; 1.00 gm enzyme A, about 1 M ester, 0.1M potassium phosphate pH 7.0, 23.9 hours, room temperature, by NaOH titration): 29%
% CONVERSION (Pig Liver Esterase (E); 0.010 mol ester in 100 ml 0.2M sodium phosphate buffer at pH 7.8 (heading: pH 7.0)): 12.1%
% e.e. (Pig Liver Esterase (E); acid product (R), pH 7.8 (heading: pH 7.0)): 88.0%

Other lines, results leading:

% e.e. ([1]; acid product (S), 100 mg enzyme B, pH 7.0, 25 C, 18 hours): 10%
% CONVERSION ([2]; 100 mg enzyme A, 10.0 mmol ester in 100 ml 2M Na3PO4 buffer pH 7.0, 25 C, 18 hours): 53%
% e.e. ([2]; acid product (S), 100 mg enzyme A, pH 7.0, 25 C, 18 hours): 3%
Structure (SMILES): CC(CSC(=O)c1ccccc1)C(=O)OCS(=O)(=O)O (racemic) [Compound 16, Potassium Salt of the Sulfomethyl Ester of (±)-S-3-Benzoylthio-2-methylpropanoic Acid]

Solubility [4]: 1.13 M
% CONVERSION [5]: 22.0%
Structure (SMILES): CC(C)Cc1ccc(C(C)C(=O)OCCCCS(=O)(=O)O)cc1 (centres unmarked) [Compound 4, Potassium Salt of 4-Sulfobutyl Ester of 2-(4-Isobutylphenyl)propanoic Acid]

% CONVERSION [5]: 5.3%
Structure (SMILES): CC(C)Cc1ccc(C(C)C(=O)OCCOP(=O)(O)O)cc1 (centres unmarked) [Compound 5, Disodium Salt of the Phosphoric Acid Ester of the 2-Hydroxyethyl Ester of 2-(4-Isobutylphenyl)propanoic Acid]
